This is an account of results in PubChem BioAssay (NCI).

Common to all, as to assay: growth of human tumour cells (NCI), 48 h
Assay [1] deals with LOX IMVI melanoma.
Assay [2] deals with HL-60(TB) leukemia.
Assay [3] relates to 786-0 renal.
In assay [4] the test system is M14 melanoma.
For assay [5], the system named is EKVX NSCLC.
Assay [6] has as its system BT-549 breast.
Assay [7] has as its system COLO 205 colon.
For assay [8], the system named is SF-295 CNS.
Assay [9] concerns SF-539 CNS.
Assay [10] relates to UO-31 renal.
The subject of assay [11] is IGROV1 ovarian.
For assay [12], the system named is MCF7 breast.
The subject of assay [13] is NCI/ADR-RES ovarian.
For assay [14], the system named is SK-MEL-28 melanoma.
The subject of assay [15] is OVCAR-8 ovarian.
In assay [16] the test system is HS 578T breast.
In assay [17] the test system is NCI-H226 lung.
The test system of assay [18] is CAKI-1 renal.
For assay [19], the system named is KM12 colon.

The structures appear in SMILES notation.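 Method: 48-hour compound exposure of cells in 96-well plates, five concentrations, linear interpolation of endpoints. The concentration for full growth arrest is given as TGI.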

As for `C[C@H](CCc1nc(C#N)c(N)o1)[C@H]1CC[C@H]2[C@@H]3[C@@H](O)CC4C[C@@H](O)CC[C@]4(C)[C@H]3C[C@@H](O)[C@]12C` (stereo not given in full), the TGI in [1] is 29.2 µM; in assay [2] it was greater than 26.9 µM; in assay [3] it was greater than 86.7 µM; in [4], greater than 75.8 µM; in assay [5] it was 98.1 µM; in assay [6], 25.3 µM. Further, the TGI in assay [7] was 40.5 µM; in assay [8], 53.2 µM; in assay [9], 59.5 µM; in assay [10], 61.8 µM; in assay [11] it was 33.2 µM; in [12], greater than 95.4 µM. Further, the TGI was greater than 100 µM in [13]; 47.2 µM in assay [14]; 41.7 µM in [15]; 62.6 µM in [16]; 62.9 µM in assay [17]; greater than 100 µM in assay [18]. In assay [19], the TGI worked out at 53.8 µM.
On to `CCCCNc1nc(SC)nc2nc[nH]c12`, for which the TGI in assay [1], in assay [2], in assay [3], in assay [4], in [5] and in assay [6] was greater than 100 µM each time. Besides, the TGI in [7], in [8], in assay [9], in assay [10], in assay [11] and in assay [12] was greater than 100 µM throughout. For the same compound, the TGI in assay [13] is greater than 100 µM; in assay [14], greater than 100 µM; in assay [15], greater than 100 µM; in [16] it was 21.9 µM; in [17], greater than 100 µM; in [18] it was greater than 100 µM. Also, in [19], the TGI is greater than 100 µM.
`O=C(c1nsc(Cl)c1Cl)N1CCCCC1`: the TGI in [1], in assay [2], in assay [3], in assay [4], in assay [5] and in assay [6] was greater than 100 µM throughout. In addition, the TGI in [7], in assay [8], in assay [9], in assay [10], in [11] and in assay [12] was greater than 100 µM each time. Further, the TGI in [13], in assay [14], in assay [15], in [16], in assay [17] and in assay [18] was greater than 100 µM in each case. Also, in assay [19], the TGI was greater than 100 µM.
Take `COC(=O)[C@]1(c2cc3ccccc3[nH]2)CC2CN(CC(=O)N(C)OC)C1C1OC(C)(C)OC21` (stereo not given in full): the TGI was greater than 100 µM in assay [1]; 51.4 µM in assay [2]; greater than 100 µM in [3]; greater than 100 µM in [4]; greater than 100 µM in [5]; greater than 100 µM in assay [6]. In addition, the TGI in assay [7], in assay [8], in assay [9], in assay [10], in [11] and in [12] was greater than 100 µM each time. Also, the TGI in assay [13], in assay [14], in [15], in [16], in [17] and in assay [18] was greater than 100 µM each time. This compound also returned a TGI in assay [19] greater than 100 µM.
In the case of `CC(=O)OCCn1c(Cc2ccc([N+](=O)[O-])cc2)nn(C(C)=O)c1=O`, the TGI in [1], in [2], in assay [3], in assay [4], in [5] and in [6] was greater than 100 µM each time. The TGI in assay [7], in assay [8], in assay [9], in assay [10], in [11] and in [12] was greater than 100 µM in each case. Moreover, the TGI in [13], in assay [14], in [15], in assay [16], in assay [17] and in assay [18] was greater than 100 µM in each case. This compound returned a TGI in [19] greater than 100 µM.
For the compound `Cc1cccc(C)c1NC(=S)/N=C/C1=C(O)c2ccccc2C1=O`, the TGI was greater than 100 µM in [1]; greater than 100 µM in assay [2]; greater than 100 µM in assay [3]; greater than 100 µM in [4]; greater than 94.4 µM in assay [5]; greater than 28.8 µM in [6]. Further, the TGI was greater than 40.4 µM in assay [7]; greater than 100 µM in assay [8]; greater than 59.9 µM in assay [9]; greater than 86.1 µM in [10]; greater than 79.4 µM in [11]; greater than 100 µM in [12]. For the same compound, the TGI in assay [13] was greater than 100 µM; in [14], greater than 100 µM; in assay [15], greater than 100 µM; in [16], greater than 100 µM; in assay [17] it was greater than 100 µM; in [18] it was 68.9 µM. The same compound returned a TGI in [19] greater than 100 µM.
On to `COc1ccc(-c2nc3ccc(C)cc3o2)c(OC)c1`, for which the TGI came to 31 µM in [1]; 50 µM in assay [2]; 41.7 µM in assay [3]; 35.7 µM in assay [4]; 63 µM in [5]; 67.1 µM in assay [6]. The TGI in assay [7] is 40.7 µM; in [8], 46.8 µM; in assay [9], 40.9 µM; in assay [10], 58.1 µM; in [11], 76.3 µM; in [12] it was greater than 100 µM. Moreover, the TGI in assay [13] is 99.9 µM; in assay [14], greater than 100 µM; in [15] it was 77.1 µM; in assay [16] it was 71.4 µM; in [17], 79.1 µM; in assay [18] it was 76.1 µM. The compound further registered a TGI in assay [19] of 40.4 µM.
With `COC(=O)C1=NN2c3ccccc3CN([C@@H](C)c3ccccc3)C(=O)[C@@H]2C1`, the TGI in assay [1] was 77.1 µM; in [2] it was 48.6 µM; in assay [3], greater than 100 µM; in assay [4], 57.5 µM; in assay [5] it was greater than 100 µM; in [6] it was 64.9 µM. Besides, the TGI in assay [7] was greater than 100 µM; in [8] it was greater than 100 µM; in assay [9], greater than 100 µM; in [10], 60.7 µM; in assay [11] it was greater than 100 µM; in assay [12], greater than 100 µM. Besides, the TGI is 56.1 µM in assay [13]; greater than 100 µM in assay [14]; greater than 100 µM in assay [15]; 85.8 µM in assay [16]; greater than 100 µM in [17]; 77.7 µM in assay [18]. The same compound displayed a TGI in assay [19] of 51.3 µM.
For the compound `CC(C)(C)SC1=CCC[C@@H](P(=O)(c2ccccc2)c2ccccc2)[C@@H]2CCC[C@@H]12`, the TGI is 33.5 µM in [1]; 47.5 µM in [2]; 30.4 µM in assay [3]; 29.5 µM in assay [4]; 33.7 µM in assay [5]; 32.3 µM in assay [6]. In addition, the TGI in assay [7] amounted to 34.1 µM; in assay [8], 29 µM; in assay [9], 36.5 µM; in [10], 30.2 µM; in assay [11], 36 µM; in assay [12], 31.1 µM. The TGI in assay [13] stood at 35.1 µM; in assay [14] it was 54.6 µM; in assay [15], 39.2 µM; in [16], 47.6 µM; in assay [17] it was 35.6 µM; in assay [18] it was 32.9 µM. Also, in [19], the TGI was 35.5 µM.
For `CCOC(=O)c1sc2nc(SC)nc(Nc3ccc(OC)c(OC)c3)c2c1N`, the TGI in assay [1], in assay [2], in assay [3], in [4], in assay [5] and in assay [6] was greater than 100 µM throughout. The TGI in assay [7] was greater than 100 µM; in assay [8], 45.6 µM; in assay [9], greater than 100 µM; in assay [10], greater than 100 µM; in assay [11], greater than 100 µM; in [12], greater than 100 µM. Further, the TGI is greater than 100 µM in assay [13]; 52.7 µM in assay [14]; greater than 100 µM in assay [15]; 64.3 µM in assay [16]; greater than 100 µM in assay [17]; greater than 100 µM in [18]. The TGI in [19] is greater than 100 µM.
As to `CS(=O)(=O)C(=Cc1ccccc1Cl)S(C)(=O)=O`, the TGI in [1], in [2], in assay [3], in assay [4], in [5] and in [6] was greater than 100 µM each time. The TGI in [7] is greater than 100 µM; in [8], greater than 46.4 µM; in [9] it was greater than 100 µM; in [10] it was greater than 100 µM; in assay [11], greater than 100 µM; in [12], greater than 100 µM. In addition, the TGI in assay [13], in [14], in [15], in [16], in [17] and in assay [18] was greater than 100 µM each time. The same compound came in with a TGI in assay [19] greater than 46.4 µM.
On to `CCCNc1[nH]c(C(C)=O)c(N)c1C(=S)Nc1ccccc1`, for which the TGI was 63.4 µM in [1]; greater than 100 µM in assay [2]; 75.6 µM in assay [3]; 36.8 µM in assay [4]; greater than 100 µM in assay [5]; 68.4 µM in assay [6]. Further, the TGI in assay [7] is greater than 100 µM; in [8], greater than 100 µM; in assay [9] it was 65.4 µM; in [10], greater than 100 µM; in assay [11] it was greater than 100 µM; in assay [12] it was 45.4 µM. The TGI was greater than 100 µM in [13]; 68.3 µM in [14]; greater than 100 µM in assay [15]; greater than 100 µM in assay [16]; 75 µM in assay [17]; greater than 100 µM in assay [18]. For the same compound, in [19], the TGI was greater than 100 µM.
With `CC[C@H](CCCCC1CC[C@@H]2CC(=O)C[C@H]12)OC` (stereo not given in full), the TGI in assay [1], in assay [2], in assay [3], in assay [4], in assay [5] and in assay [6] was greater than 100 µM each time. Further, the TGI in assay [7], in assay [8], in [9], in [10], in assay [11] and in assay [12] was greater than 100 µM throughout. Also, the TGI in assay [13], in [14], in assay [15], in [16], in [17] and in assay [18] was greater than 100 µM each time. In [19], the TGI was greater than 100 µM.
Consider `COc1cc2c(cc1OC)-c1cc3ccccc3c(=O)n1CCC2`, for which the TGI in assay [1] is 13.7 µM; in [2], 11.5 µM; in assay [3], greater than 51.3 µM; in assay [4] it was greater than 59.1 µM; in assay [5], greater than 100 µM; in assay [6], 89.2 µM. In addition, the TGI is greater than 60.2 µM in [7]; greater than 85 µM in assay [8]; 26 µM in [9]; 61.1 µM in assay [10]; 66 µM in assay [11]; greater than 89.5 µM in assay [12]. Besides, the TGI was 32.2 µM in [13]; greater than 73.6 µM in assay [14]; 61.2 µM in assay [15]; greater than 100 µM in [16]; 70.5 µM in assay [17]; 44.9 µM in [18]. In [19], this compound displayed a TGI of 38 µM.
As to `Nc1nc(Cl)c2ncn(Cc3ccccc3CCl)c2n1`, the TGI was 21.9 µM in assay [1]; greater than 100 µM in assay [2]; 52 µM in assay [3]; 40.1 µM in [4]; 31.1 µM in [5]; 22.9 µM in assay [6]. In addition, the TGI in assay [7] is greater than 100 µM; in assay [8] it was 23.4 µM; in [9], 38.2 µM; in assay [10] it was 45 µM; in assay [11], greater than 100 µM; in [12] it was 24.3 µM. Besides, the TGI in [13] was determined as 34.6 µM; in assay [14], 20.7 µM; in assay [15], 19.6 µM; in [16], 77.6 µM; in [17] it was 9.95 µM; in [18], 20.4 µM. Besides, the TGI in assay [19] came out at 39 µM.
